According to US20060069132A1, “Azolecarboxamide herbicides” (priority 2004, published 2006):
Where two headings read alike, the source gives them in different places.

How the values were obtained:
morningglory [1] = experiment: Test A pre-/postemergence herbicide test; type: in vivo, Ipomoea spp.; conditions: Ipomoea, 240 h; for pest or weed control at 500 g/ha: 500 g ai/ha; for pest or weed control at 2000 g/ha: 2000 g ai/ha
Procedure, shortened: (§1)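 Seeds sown in sandy loam received a preemergence directed soil spray of compound in non-phytotoxic solvent with surfactant; postemergence plants (2–10 cm, one- to two-leaf stage) were sprayed to runoff at the same time. After ~10 days in greenhouse, injury was rated visually versus untreated controls (0 = no effect, 100 = complete control).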

redroot pigweed = experiment: Test A pre-/postemergence herbicide test; type: in vivo, Amaranthus retroflexus; conditions: Amaranthus retroflexus, 240 h; for pest or weed control at 500 g/ha: 500 g ai/ha; for pest or weed control at 2000 g/ha: 2000 g ai/ha
Procedure, shortened: as §1

velvetleaf = experiment: Test A pre-/postemergence herbicide test; type: in vivo, Abutilon theophrasti; conditions: Abutilon theophrasti, 240 h; for pest or weed control at 2000 g/ha: 2000 g ai/ha, 0 to 100 scale, 0 no effect, 100 complete control
Procedure, shortened: as §1

bermudagrass = experiment: Test C pre-/postemergence herbicide test; type: in vivo, Cynodon dactylon
Procedure, shortened: (§2)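 Seeds were planted and sprayed preemergence with test chemicals in a non-phytotoxic solvent mixture containing surfactant; postemergence treatments went onto plants 2 to 18 cm tall (1- to 4-leaf stage). After 12 to 14 days in a greenhouse, injury was rated visually against untreated controls on a 0–100 scale.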

giant foxtail = experiment: Test C pre-/postemergence herbicide test; type: in vivo, Setaria faberi
Procedure, shortened: as §2

lambsquarters = experiment: Test C pre-/postemergence herbicide test; type: in vivo, Chenopodium album
Procedure, shortened: as §2

morningglory [2] = experiment: Test C pre-/postemergence herbicide test; type: in vivo, Ipomoea coccinea
Procedure, shortened: as §2

eastern black nightshade = experiment: Test C pre-/postemergence herbicide test; type: in vivo, Solanum ptycanthum
Procedure, shortened: as §2

yellow nutsedge = experiment: Test C pre-/postemergence herbicide test; type: in vivo, Cyperus esculentus
Procedure, shortened: as §2

common ragweed = experiment: Test C pre-/postemergence herbicide test; type: in vivo, Ambrosia elatior
Procedure, shortened: as §2

[3] = test system: smallflower umbrella sedge; experiment: Test C flooded paddy test; type: in vivo, Cyperus difformis; conditions: Cyperus difformis
barnyardgrass = experiment: Test C flooded paddy test; type: in vivo, Echinochloa crus-galli; conditions: Echinochloa crus-galli
Procedure, shortened: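 Scoring by eye, 12–14 days post-treatment, greenhouse-held plants vs. controls; 0 no effect, 100 complete control. Sprayed at 1–4 leaves (2–18 cm); paddy barnyardgrass at 2 leaves, flooded.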

[4] = post-emergence, Postemergence, 0 to 100 scale, 0 no effect, 100 complete control, read-out: Plant response rating, Morningglory
[5] = post-emergence, Postemergence, 0 to 100 scale, 0 no effect, 100 complete control, read-out: Plant response rating, Pigweed
[6] = Preemergence, 500 g ai/ha, scale 0 to 100, 0 no effect, 100 complete control

Compound `CCn1nc(C(C)(C)C)cc1C(=O)Nc1cccc2c1CN(C)C2=O` [Compound 55, N-(2,3-dihydro-2-methyl-1-oxo-1H-isoindol-4-yl)-3-(1,1-dimethylethyl)-1-ethyl-1H-pyrazole-5-carboxamide] has a pest or weed control at 500 g/ha (morningglory [1]; [4]) of 20%, a pest or weed control at 2000 g/ha (morningglory [1]; [4]) of 25% and a pest or weed control at 500 g/ha (morningglory [1]; pre-emergence, Preemergence, visual rating, 0 to 100 scale (0 no effect, 100 complete control), read-out: Morningglory plant response rating) of 5%. For the same compound, the pest or weed control at 2000 g/ha (morningglory [1]; pre-emergence, Preemergence, 0 to 100 scale, 0 no effect, 100 complete control, read-out: Morningglory plant response rating) was 20%, the pest or weed control at 500 g/ha (redroot pigweed; [5]) was 90% and the pest or weed control at 2000 g/ha (redroot pigweed; [5]) was 100%. The pest or weed control at 500 g/ha (redroot pigweed; pre-emergence, Preemergence, visual rating, 0 to 100 scale (0 no effect, 100 complete control), read-out: Pigweed plant response rating) was 100%, the pest or weed control at 2000 g/ha (redroot pigweed; pre-emergence, Preemergence, 0 to 100 scale, 0 no effect, 100 complete control, read-out: Pigweed plant response rating) was 100% and the pest or weed control at 2000 g/ha (velvetleaf; post-emergence, Postemergence, read-out: Plant response rating, Velvetleaf) was 40%. For the same compound, the pest or weed control at 500 g/ha (velvetleaf; pre-emergence, Preemergence, 500 g ai/ha, visual rating, 0 to 100 scale (0 no effect, 100 complete control), read-out: Velvetleaf plant response rating) was 20%, the pest or weed control at 2000 g/ha (velvetleaf; pre-emergence, Preemergence, read-out: Velvetleaf plant response rating) was 70% and the “Plant response rating (0 = no effect, 100 = complete control), Bermudagrass” value (bermudagrass; 62 g ai/ha, preemergence) was 60. For the same compound, the pest or weed control at 125 g/ha (bermudagrass; Cynodon dactylon, pre-emergence, 312 h, 125 g ai/ha, scale 0 (no effect) to 100 (complete control), visual, 12 to 14 days, read-out: Plant response rating, Bermudagrass) was 100%, the pest or weed control at 250 g/ha (bermudagrass; Cynodon dactylon, pre-emergence, 312 h, 250 g ai/ha, scale 0 to 100 (0 no effect, 100 complete control), visual, 12 to 14 days, read-out: Plant response rating, Bermudagrass) was 100% and the pest or weed control at 500 g/ha (bermudagrass; Cynodon dactylon, pre-emergence, 312 h, Preemergence, 500 g ai/ha, scale 0 to 100, 0 no effect, 100 complete control, read-out: Bermudagrass plant response rating) was 100%. For the same compound, the “Plant response rating (0 = no effect, 100 = complete control), Foxtail, Giant” value (giant foxtail; 62 g ai/ha, preemergence) was 0, the “Foxtail, Giant plant response rating” value (giant foxtail; [6]) was 100 and the pest or weed control at 125 g/ha (giant foxtail; Setaria faberi, pre-emergence, 312 h, 125 g ai/ha, scale 0 (no effect) to 100 (complete control), visual, 12 to 14 days, read-out: Plant response rating, Foxtail, Giant) was 50%. For the same compound, the pest or weed control at 250 g/ha (giant foxtail; Setaria faberi, pre-emergence, 312 h, 250 g ai/ha, scale 0 to 100 (0 no effect, 100 complete control), visual, 12 to 14 days, read-out: Plant response rating, Foxtail, Giant) was 75%, the “Plant response rating (0 = no effect, 100 = complete control), Lambsquarters” value (lambsquarters; 62 g ai/ha, preemergence) was 80 and the pest or weed control at 125 g/ha (lambsquarters; Chenopodium album, pre-emergence, 125 g ai/ha, scale 0 (no effect) to 100 (complete control), visual, 12 to 14 days, read-out: Plant response rating, Lambsquarters) was 95%. For the same compound, the pest or weed control at 250 g/ha (lambsquarters; Chenopodium album, pre-emergence, 250 g ai/ha, scale 0 to 100 (0 no effect, 100 complete control), visual, 12 to 14 days, read-out: Plant response rating, Lambsquarters) was 100%, the “Lambsquarters plant response rating” value (lambsquarters; [6]) was 100 and the “Plant response rating (0 = no effect, 100 = complete control), Morningglory” value (morningglory [2]; 62 g ai/ha, preemergence) was 0. The pest or weed control at 125 g/ha (morningglory [2]; Ipomoea, pre-emergence, 125 g ai/ha, scale 0 (no effect) to 100 (complete control), visual, 12 to 14 days, read-out: Plant response rating, Morningglory) was 0%, the pest or weed control at 250 g/ha (morningglory [2]; Ipomoea, pre-emergence, 250 g ai/ha, scale 0 to 100 (0 no effect, 100 complete control), visual, 12 to 14 days, read-out: Plant response rating, Morningglory) was 20% and the “Morningglory plant response rating” value (morningglory [2]; [6]) was 75. For the same compound, the “Plant response rating (0 = no effect, 100 = complete control), Nightshade” value (eastern black nightshade; 62 g ai/ha, preemergence) was 15, the “Nightshade plant response rating” value (eastern black nightshade; [6]) was 95 and the pest or weed control at 125 g/ha (eastern black nightshade; pre-emergence, 125 g ai/ha, scale 0 (no effect) to 100 (complete control), visual, 12 to 14 days, read-out: Plant response rating, Nightshade) was 60%. For the same compound, the pest or weed control at 250 g/ha (eastern black nightshade; pre-emergence, 250 g ai/ha, scale 0 to 100 (0 no effect, 100 complete control), visual, 12 to 14 days, read-out: Plant response rating, Nightshade) was 90%, the “Plant response rating (0 = no effect, 100 = complete control), Nutsedge, Yellow” value (yellow nutsedge; 62 g ai/ha, preemergence) was 0 and the pest or weed control at 125 g/ha (yellow nutsedge; Cyperus, pre-emergence, 125 g ai/ha, scale 0 (no effect) to 100 (complete control), visual, 12 to 14 days, read-out: Plant response rating, Nutsedge, Yellow) was 0%. The pest or weed control at 250 g/ha (yellow nutsedge; Cyperus, pre-emergence, 250 g ai/ha, scale 0 to 100 (0 no effect, 100 complete control), visual, 12 to 14 days, read-out: Plant response rating, Nutsedge, Yellow) was 0%, the “Nutsedge, Yellow plant response rating” value (yellow nutsedge; [6]) was 10 and the “Plant response rating (0 = no effect, 100 = complete control), Ragweed” value (common ragweed; 62 g ai/ha, preemergence) was 0. For the same compound, the pest or weed control at 125 g/ha (common ragweed; Ambrosia artemisiifolia, pre-emergence, 125 g ai/ha, scale 0 (no effect) to 100 (complete control), visual, 12 to 14 days, read-out: Plant response rating, Ragweed) was 0%, the pest or weed control at 250 g/ha (common ragweed; Ambrosia artemisiifolia, pre-emergence, 250 g ai/ha, scale 0 to 100 (0 no effect, 100 complete control), visual, 12 to 14 days, read-out: Plant response rating, Ragweed) was 0% and the “Ragweed plant response rating” value (common ragweed; [6]) was 80. It also gave a pest or weed control at 62 g/ha ([3]; 62 g ai/ha, scale 0 to 100 (0 no effect, 100 complete control), read-out: Sedge, Umbrella plant response rating) of 0%, a pest or weed control at 125 g/ha ([3]; 125 g ai/ha, scale of 0 to 100, 0 is no effect, 100 is complete control, read-out: Sedge, Umbrella plant response rating) of 20% and a pest or weed control at 250 g/ha ([3]; 250 g ai/ha, scale of 0 to 100, 0 is no effect, 100 is complete control, read-out: Sedge, Umbrella plant response rating) of 75%. It also gave a pest or weed control at 500 g/ha ([3]; 500 g ai/ha, visual rating after 12 to 14 days, scale 0 to 100 (0 no effect, 100 complete control), read-out: Plant response rating, Sedge, Umbrella) of 80%, a pest or weed control at 62 g/ha (barnyardgrass; 62 g ai/ha, scale 0 to 100 (0 no effect, 100 complete control), read-out: Barnyardgrass plant response rating) of 0% and a pest or weed control at 125 g/ha (barnyardgrass; 125 g ai/ha, scale of 0 to 100, 0 is no effect, 100 is complete control, read-out: Barnyardgrass plant response rating) of 0%. For the same compound, the pest or weed control at 250 g/ha (barnyardgrass; 250 g ai/ha, scale of 0 to 100, 0 is no effect, 100 is complete control, read-out: Barnyardgrass plant response rating) was 25% and the pest or weed control at 500 g/ha (barnyardgrass; 500 g ai/ha, visual rating after 12 to 14 days, scale 0 to 100 (0 no effect, 100 complete control), read-out: Plant response rating, Barnyardgrass) was 75%.
